Earlier results in patent US20230354819A1 (priority 2020, published 2023).
Bridge positions count the residues as written; N and C are the ends. Square brackets hold non-standard residues; d marks the D form. Peptide text beside a SMILES is read from it. * marks the point of attachment. ξ: configuration not given here. Pentadecanoyl(3ξ-OH,15-Gua) = N=C(N)NCCCCCCCCCCCCC(O)CC(=O)*; d(aThr) = C[C@@H](O)[C@@H](N)C(=O)O

System: cultured parsley cells
Settings: WO 2006/016558

SMILES | induction of resistance reactions
CC(C)[C@@H]1NC(=O)[C@@H](C(C)C)NC(=O)[C@@H](NC(=O)CC(O)CCCCCCCCCCCCN=C(N)N)[C@@H](C)OC(=O)[C@@H](C)NC(=O)[C@@H](CC(N)=O)NC(=O)[C@@H]([C@@H](C)O)NC1=O (some centres unmarked) [fusaricidin A] ({Pentadecanoyl(3ξ-OH,15-Gua)}-T[dV]V[d(aThr)][dN][dA]; ester 1-C) | induce resistance reactions
CC(C)[C@@H]1NC(=O)[C@@H](C(C)C)NC(=O)[C@@H](NC(=O)CC(O)CCCCCCCCCCCCN=C(N)N)C(C)OC(=O)[C@@H](C)NC(=O)[C@@H](CCC(N)=O)NC(=O)[C@@H]([C@H](C)O)NC1=O (stereo in doubt) [fusaricidin B] | induce resistance reactions
